Results as given in ChEMBL document CHEMBL1201862, “PubChem BioAssay data set” (2004).
The source made the active and inactive calls.

Experiments:
[1] = biological target: E3 ubiquitin-protein ligase Mdm2 (Homo sapiens, UniProt Q00987); experiment: enhancers of MDM2-luciferase reporter signal, concentration-effect titration, project on inhibitors of MDM2 ubiquitin ligase, cellular assay, luminescent readout, 384-well plate format (AID 1394); type: functional;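 further: MDM2 E3 inhibitors raise luminescence so EC50 is for signal enhancement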
E3 ubiquitin-protein ligase Mdm2, sequence (Q00987 whole entry): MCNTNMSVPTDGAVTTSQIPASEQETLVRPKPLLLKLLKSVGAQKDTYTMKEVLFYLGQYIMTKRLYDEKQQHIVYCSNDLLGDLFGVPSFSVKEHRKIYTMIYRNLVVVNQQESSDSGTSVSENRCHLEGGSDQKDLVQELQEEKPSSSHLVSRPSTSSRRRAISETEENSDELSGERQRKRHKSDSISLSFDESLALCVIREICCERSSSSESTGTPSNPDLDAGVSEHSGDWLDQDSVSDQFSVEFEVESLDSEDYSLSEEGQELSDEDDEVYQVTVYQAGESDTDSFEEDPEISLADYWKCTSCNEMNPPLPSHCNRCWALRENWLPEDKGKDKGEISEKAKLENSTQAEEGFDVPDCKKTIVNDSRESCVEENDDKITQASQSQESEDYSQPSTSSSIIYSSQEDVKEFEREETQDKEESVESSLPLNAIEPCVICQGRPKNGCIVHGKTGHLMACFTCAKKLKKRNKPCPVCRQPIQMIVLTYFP

HEK293 = experiment: inhibitors of LMP1-driven NF-kB reporter, dose response, cell-based, HEK293, luciferase, cherry-pick (AID 588343); type: functional; conditions: Homo sapiens
Bcl-2-related protein A1 [2] = biological target: T1, Bcl-2-related protein A1 (Mus musculus, UniProt Q07440); experiment: Bfl-1 binding inhibitors, SAR follow-up, biochemical, fluorescence polarization (AID 1070)
T1 sequence (Q07440 whole entry): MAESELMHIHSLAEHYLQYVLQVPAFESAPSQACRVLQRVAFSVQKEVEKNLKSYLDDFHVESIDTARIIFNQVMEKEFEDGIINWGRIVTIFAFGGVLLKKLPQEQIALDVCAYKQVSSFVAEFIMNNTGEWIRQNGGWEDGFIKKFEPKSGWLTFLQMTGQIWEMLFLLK

[3] = biological target: Glyceraldehyde-3-phosphate dehydrogenase (Homo sapiens, UniProt P04406)
Glyceraldehyde-3-phosphate dehydrogenase, sequence (P04406 whole entry): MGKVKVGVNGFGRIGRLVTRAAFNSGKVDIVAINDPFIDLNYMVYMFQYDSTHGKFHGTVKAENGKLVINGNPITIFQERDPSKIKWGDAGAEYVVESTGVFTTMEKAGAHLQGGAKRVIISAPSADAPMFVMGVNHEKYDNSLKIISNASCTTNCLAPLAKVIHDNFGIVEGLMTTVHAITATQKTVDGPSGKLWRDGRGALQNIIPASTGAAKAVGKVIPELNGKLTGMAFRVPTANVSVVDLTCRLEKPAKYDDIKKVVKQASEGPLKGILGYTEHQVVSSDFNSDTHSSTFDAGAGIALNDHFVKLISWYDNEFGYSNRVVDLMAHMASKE

Bcl-2-related protein A1 [4] = biological target: T1, Bcl-2-related protein A1; experiment: Bfl-1 inhibitors blocking BH3 peptide binding, confirmation, biochemical, TR-FRET, mouse Bfl-1 (AID 621);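 further: TR-FRET binding of GST-Bfl-1 to FITC-labelled Bid peptide via terbium antibody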
[5] = biological target: T2, Glutathione-S-transferase (Schistosoma japonicum, UniProt Q26513); experiment: biotin-GST/anti-GST TR-FRET signal inhibitors, dose response, artefact control for Vif-APOBEC3G degradation inhibitor project, biochemical (AID 1117362); type: functional
T2 sequence (Q26513 whole entry): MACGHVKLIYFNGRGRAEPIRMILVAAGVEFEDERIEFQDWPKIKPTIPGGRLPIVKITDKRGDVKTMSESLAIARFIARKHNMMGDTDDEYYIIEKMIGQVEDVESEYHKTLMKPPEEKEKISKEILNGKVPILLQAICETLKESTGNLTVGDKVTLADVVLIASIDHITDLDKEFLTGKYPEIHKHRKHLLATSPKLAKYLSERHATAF

[6] = biological target: T3, Rac GTPase-activating protein 1 (Homo sapiens, UniProt Q9H0H5); experiment: MgcRacGAP GTPase-activating activity inhibitors, confirmation, biochemical, ADP Hunter fluorescence, primary and confirmatory (AID 624330); type: functional
T3 sequence (Q9H0H5 whole entry): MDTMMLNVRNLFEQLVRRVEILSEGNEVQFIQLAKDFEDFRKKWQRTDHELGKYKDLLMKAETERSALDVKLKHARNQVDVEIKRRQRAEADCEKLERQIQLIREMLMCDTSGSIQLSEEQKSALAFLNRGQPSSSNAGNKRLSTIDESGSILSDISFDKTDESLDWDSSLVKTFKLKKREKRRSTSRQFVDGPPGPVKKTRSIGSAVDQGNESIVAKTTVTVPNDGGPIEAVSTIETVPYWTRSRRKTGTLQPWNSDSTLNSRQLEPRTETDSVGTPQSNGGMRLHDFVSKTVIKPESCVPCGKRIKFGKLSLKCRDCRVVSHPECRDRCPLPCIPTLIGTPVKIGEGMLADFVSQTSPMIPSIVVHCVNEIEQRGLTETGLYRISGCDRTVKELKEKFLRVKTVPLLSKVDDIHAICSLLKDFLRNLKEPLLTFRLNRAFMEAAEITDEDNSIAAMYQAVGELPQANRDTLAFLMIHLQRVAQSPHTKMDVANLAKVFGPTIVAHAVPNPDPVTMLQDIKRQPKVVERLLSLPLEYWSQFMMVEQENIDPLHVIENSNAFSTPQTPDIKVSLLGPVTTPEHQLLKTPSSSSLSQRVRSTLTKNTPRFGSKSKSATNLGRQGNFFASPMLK

[7] = biological target: NAD-dependent protein deacylase sirtuin-5, mitochondrial (Homo sapiens, UniProt Q9NXA8); experiment: SIRT5 desuccinylase inhibitors, dose response, biochemical, fluorescence imaging, cherry-pick, set 5 (AID 720591);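 further: desuccinylation of succinyl peptide AMC substrate read as fluorescence after trypsin release; potency of inhibitors that lower fluorescence and may act on trypsin instead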
NAD-dependent protein deacylase sirtuin-5, mitochondrial, sequence (Q9NXA8 whole entry): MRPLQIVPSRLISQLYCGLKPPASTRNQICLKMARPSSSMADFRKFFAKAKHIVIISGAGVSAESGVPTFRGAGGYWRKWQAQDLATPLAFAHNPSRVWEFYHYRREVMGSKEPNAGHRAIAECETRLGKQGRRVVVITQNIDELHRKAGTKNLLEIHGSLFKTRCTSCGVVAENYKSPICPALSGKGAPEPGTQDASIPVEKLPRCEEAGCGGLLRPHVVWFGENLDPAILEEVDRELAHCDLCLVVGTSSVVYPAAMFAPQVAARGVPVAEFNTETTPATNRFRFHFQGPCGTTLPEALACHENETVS

[8] = biological target: Mitogen-activated protein kinase 10 (Homo sapiens, UniProt P53779); experiment: Dose response biochemical screening assay for inhibitors of c-Jun N-Terminal Kinase 3 (JNK3). [Related pubchem assays: 746 ]
Mitogen-activated protein kinase 10, sequence (P53779 whole entry): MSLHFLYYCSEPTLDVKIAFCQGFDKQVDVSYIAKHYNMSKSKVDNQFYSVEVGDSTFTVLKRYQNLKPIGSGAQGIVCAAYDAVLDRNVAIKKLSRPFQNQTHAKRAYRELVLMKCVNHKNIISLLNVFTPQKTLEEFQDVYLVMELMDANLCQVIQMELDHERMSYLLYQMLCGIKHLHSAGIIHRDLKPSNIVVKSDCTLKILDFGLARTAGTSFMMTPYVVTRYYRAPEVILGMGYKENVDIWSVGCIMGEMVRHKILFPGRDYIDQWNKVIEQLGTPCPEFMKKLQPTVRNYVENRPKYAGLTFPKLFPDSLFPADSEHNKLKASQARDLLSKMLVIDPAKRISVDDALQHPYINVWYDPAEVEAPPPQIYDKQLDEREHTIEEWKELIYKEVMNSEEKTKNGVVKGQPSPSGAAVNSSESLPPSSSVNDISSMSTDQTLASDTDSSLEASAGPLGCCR

[9] = biological target: T4, Sentrin-specific protease 8 (Homo sapiens, UniProt Q96LD8); type: functional;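 further: luminescence read-out of SENP8 inhibition, dose-response confirmation following an ultra-high-throughput screen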
T4 sequence (Q96LD8 whole entry): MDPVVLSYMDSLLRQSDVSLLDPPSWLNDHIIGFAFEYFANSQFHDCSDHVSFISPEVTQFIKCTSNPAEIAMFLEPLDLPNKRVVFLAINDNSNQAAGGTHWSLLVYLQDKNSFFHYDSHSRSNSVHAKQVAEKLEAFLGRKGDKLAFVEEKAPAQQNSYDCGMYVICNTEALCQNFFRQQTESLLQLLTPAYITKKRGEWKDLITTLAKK

[10] = biological target: T5, Sentrin-specific protease 7 (Homo sapiens, UniProt Q9BQF6); type: functional;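 further: Luminescence-based dose-response confirmation of ultra-high-throughput screening hits, measuring inhibition of SENP7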
T5 sequence (Q9BQF6 whole entry): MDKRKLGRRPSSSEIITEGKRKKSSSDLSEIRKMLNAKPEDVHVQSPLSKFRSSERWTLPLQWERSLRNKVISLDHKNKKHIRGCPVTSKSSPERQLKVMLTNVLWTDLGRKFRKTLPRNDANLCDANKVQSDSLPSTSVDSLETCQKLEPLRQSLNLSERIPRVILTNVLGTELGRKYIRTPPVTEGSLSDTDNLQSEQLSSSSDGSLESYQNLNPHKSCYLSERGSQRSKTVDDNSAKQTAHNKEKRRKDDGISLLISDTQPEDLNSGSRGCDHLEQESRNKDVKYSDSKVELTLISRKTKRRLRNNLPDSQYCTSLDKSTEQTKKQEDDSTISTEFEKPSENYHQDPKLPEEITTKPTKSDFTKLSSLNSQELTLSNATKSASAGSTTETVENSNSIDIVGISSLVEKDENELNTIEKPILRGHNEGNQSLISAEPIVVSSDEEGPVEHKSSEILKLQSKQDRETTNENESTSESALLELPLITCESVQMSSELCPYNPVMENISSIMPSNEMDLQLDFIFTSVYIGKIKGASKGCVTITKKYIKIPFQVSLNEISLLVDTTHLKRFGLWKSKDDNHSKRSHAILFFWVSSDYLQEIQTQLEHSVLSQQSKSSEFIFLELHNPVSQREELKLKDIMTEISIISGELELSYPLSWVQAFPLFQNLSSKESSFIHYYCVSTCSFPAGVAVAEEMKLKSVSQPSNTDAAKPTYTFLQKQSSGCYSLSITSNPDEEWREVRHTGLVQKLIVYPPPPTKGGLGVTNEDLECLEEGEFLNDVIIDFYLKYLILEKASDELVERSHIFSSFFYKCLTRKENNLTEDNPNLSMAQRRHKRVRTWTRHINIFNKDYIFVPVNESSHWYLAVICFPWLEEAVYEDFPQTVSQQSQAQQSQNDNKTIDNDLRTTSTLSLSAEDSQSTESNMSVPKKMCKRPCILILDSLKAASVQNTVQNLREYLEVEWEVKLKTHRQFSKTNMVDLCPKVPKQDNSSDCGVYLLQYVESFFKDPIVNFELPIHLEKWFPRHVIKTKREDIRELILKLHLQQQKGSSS

[11] = biological target: T6, Sentrin-specific protease 6 (Homo sapiens, UniProt Q9GZR1); type: functional;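 further: Luminescence-based dose-response confirmatory assay of SENP6 inhibition, following up an ultra-high-throughput screen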
T6 sequence (Q9GZR1 whole entry): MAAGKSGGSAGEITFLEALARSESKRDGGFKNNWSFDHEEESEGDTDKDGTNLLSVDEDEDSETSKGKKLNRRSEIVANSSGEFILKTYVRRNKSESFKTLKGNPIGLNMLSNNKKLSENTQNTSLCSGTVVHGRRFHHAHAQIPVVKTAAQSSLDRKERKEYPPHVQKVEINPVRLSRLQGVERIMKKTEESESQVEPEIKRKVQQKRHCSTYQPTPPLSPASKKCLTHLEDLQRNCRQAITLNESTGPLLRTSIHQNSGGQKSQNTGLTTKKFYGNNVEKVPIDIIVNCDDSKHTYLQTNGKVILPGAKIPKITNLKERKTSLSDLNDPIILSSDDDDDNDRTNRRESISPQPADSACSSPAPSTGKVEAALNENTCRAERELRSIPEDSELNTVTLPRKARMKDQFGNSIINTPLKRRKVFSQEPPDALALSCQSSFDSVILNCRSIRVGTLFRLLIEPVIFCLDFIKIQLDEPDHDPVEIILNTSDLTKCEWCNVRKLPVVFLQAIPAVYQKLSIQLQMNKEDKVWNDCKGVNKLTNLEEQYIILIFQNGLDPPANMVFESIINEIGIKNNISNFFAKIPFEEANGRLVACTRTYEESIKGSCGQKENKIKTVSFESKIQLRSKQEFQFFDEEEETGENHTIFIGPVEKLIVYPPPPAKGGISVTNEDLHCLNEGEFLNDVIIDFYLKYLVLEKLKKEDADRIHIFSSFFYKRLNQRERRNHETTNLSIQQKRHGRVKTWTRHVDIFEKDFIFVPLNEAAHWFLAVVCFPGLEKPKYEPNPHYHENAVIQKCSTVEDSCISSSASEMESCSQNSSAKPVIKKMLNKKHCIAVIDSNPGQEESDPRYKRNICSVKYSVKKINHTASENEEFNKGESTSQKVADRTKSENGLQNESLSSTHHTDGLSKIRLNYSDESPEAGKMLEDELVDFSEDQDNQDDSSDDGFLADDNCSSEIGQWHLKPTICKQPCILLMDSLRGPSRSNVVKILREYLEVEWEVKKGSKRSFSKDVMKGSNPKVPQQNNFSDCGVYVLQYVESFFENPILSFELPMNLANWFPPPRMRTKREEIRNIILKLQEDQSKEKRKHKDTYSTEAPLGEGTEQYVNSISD

Caspase-3 = biological target: T7, Caspase-3 (Homo sapiens, UniProt P42574); type: functional;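 further: Dose-response selectivity test against caspase-3 for candidate inhibitors of sentrin-specific proteases (SENPs)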
T7 sequence (P42574 whole entry): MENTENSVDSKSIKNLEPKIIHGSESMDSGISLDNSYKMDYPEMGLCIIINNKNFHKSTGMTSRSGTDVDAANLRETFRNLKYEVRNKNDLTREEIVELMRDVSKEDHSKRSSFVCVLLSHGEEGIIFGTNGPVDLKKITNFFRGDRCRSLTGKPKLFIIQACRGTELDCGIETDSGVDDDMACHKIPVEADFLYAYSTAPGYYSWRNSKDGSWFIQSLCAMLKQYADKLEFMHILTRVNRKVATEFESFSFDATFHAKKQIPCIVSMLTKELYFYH

[12] = biological target: Glucose-6-phosphate 1-dehydrogenase (Homo sapiens, UniProt P11413); experiment: human G6PD enzyme inhibitors, dose response, selectivity assay for P. falciparum G6PD inhibitor project, biochemical, fluorescence (AID 504792); type: functional
Glucose-6-phosphate 1-dehydrogenase, sequence (P11413 whole entry): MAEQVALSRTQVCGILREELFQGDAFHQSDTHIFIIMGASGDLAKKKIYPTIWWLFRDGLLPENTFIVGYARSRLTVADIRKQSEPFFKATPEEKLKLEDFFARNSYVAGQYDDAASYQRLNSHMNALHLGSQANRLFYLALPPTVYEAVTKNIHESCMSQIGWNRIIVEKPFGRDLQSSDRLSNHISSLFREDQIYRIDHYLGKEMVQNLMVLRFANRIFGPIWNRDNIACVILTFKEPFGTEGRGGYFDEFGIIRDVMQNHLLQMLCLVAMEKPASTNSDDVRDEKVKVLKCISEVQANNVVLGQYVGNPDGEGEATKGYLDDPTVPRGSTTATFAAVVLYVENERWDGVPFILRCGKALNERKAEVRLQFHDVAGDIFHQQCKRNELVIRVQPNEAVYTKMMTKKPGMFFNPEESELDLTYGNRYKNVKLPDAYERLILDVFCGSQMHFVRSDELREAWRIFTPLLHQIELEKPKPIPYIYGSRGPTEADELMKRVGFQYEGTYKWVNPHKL

Large T antigen = Large T antigen (Simian virus 40, UniProt P03070); type: functional, Betapolyomavirus macacae;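 further: Confirmatory-stage PubChem screen for compounds that inhibit SV40 T antigen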
Large T antigen, sequence (P03070 whole entry): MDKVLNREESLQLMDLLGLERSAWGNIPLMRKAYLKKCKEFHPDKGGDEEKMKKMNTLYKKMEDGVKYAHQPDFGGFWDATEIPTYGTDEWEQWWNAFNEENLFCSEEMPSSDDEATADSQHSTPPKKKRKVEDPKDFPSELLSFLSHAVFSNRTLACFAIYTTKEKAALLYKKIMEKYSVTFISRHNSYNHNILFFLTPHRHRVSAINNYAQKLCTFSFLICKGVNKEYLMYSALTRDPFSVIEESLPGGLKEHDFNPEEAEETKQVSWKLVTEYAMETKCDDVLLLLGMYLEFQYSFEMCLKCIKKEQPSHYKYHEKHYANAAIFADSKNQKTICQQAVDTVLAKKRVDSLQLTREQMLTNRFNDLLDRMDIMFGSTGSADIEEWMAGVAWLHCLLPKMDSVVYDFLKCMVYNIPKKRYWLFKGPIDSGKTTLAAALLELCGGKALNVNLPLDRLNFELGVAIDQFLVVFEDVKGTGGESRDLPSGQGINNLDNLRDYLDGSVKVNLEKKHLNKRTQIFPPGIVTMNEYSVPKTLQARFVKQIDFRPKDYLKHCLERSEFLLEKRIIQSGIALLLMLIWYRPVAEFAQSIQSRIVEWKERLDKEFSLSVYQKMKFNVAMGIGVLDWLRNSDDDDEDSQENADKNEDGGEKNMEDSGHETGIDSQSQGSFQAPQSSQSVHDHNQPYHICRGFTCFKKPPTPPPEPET

Caspase-6 = biological target: T8, Caspase-6 (Homo sapiens, UniProt P55212); experiment: human caspase-6 inhibitors, dose response, biochemical, VEID-R110 fluorescence, cherry-pick (AID 720632)
T8 sequence (P55212 whole entry): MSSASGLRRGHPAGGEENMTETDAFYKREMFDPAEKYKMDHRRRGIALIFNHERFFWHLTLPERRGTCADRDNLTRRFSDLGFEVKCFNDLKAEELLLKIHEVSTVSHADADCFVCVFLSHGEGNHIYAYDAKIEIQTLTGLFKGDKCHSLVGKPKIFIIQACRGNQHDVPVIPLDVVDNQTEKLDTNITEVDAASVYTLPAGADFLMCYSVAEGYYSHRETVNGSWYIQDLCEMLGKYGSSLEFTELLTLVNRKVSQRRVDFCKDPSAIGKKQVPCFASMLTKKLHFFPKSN

[13] = biological target: Disintegrin and metalloproteinase domain-containing protein 17 (Homo sapiens, UniProt P78536); experiment: ADAM17 protease inhibitors, dose response, counter-screen for ADAM10 exosite inhibitor project, biochemical, quenched FRET substrate (AID 743253)
Disintegrin and metalloproteinase domain-containing protein 17, sequence (P78536 whole entry, the tested form may be a part): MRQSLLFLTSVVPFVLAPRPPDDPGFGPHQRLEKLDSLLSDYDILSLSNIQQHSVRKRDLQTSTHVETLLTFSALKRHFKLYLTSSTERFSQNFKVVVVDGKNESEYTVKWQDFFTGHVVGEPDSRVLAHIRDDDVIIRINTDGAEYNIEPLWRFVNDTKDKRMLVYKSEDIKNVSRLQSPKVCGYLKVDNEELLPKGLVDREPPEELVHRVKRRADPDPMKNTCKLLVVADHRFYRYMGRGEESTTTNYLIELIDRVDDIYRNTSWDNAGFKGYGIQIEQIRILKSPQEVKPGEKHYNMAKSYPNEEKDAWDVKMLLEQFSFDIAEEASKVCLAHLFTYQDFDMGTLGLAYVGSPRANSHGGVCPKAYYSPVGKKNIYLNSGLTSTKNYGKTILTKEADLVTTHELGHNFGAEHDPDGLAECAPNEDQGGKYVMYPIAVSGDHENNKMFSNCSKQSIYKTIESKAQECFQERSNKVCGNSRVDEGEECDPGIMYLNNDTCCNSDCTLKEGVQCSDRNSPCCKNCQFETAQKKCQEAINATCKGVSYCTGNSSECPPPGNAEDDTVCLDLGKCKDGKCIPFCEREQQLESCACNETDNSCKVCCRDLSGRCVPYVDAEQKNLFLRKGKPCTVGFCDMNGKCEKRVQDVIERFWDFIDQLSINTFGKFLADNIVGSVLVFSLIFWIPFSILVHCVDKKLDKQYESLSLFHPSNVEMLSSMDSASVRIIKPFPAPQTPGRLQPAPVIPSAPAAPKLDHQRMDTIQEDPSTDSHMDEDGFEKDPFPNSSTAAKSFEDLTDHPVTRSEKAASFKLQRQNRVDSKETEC

[14] = ADAM10 inhibitors, peptide cleavage, dose response, biochemical, QFRET (AID 743254);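 further: ADAM10 enzyme with the DM2 quenched FRET peptide as substrate; EDANS fluorescence gain as the protease cuts the substrate; inhibitor potency against ADAM10 proteolytic activity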
H9c2 = experiment: cells; type: functional, cell-based; conditions: Rattus norvegicus, H9c2, Myocardium

## CC(C)c1ccc(OCc2cccc(C(=O)N/N=C/c3cccnc3)c2)cc1
[1]
  EC50: 0.02 µM (active)
HEK293
  AC50: 0.98 µM (active)

## CN(C)C1=C(Cl)C(=O)N(c2cccc([N+](=O)[O-])c2)C1=O
Bcl-2-related protein A1 [2]
  IC50: 2.3 µM (active)
[3]
  IC50: > 100 µM (not active)
Bcl-2-related protein A1 [4]
  IC50: > 100 µM (not active)

## CC(=O)N1CCN(c2ccc(NCc3ccc4c(c3)OCO4)cc2)CC1
[5]
  IC50: 16.3 µM (active)
[6]
  IC50: 12.9 µM (active)

## Cc1ccc(C)c(N2CCN(S(=O)(=O)c3ccc4c(c3)CC(=O)N4C)CC2)c1
[7]
  AC50: > 30 µM (inactive)

## CCC(C)N1C(=O)N(C)C2NC(=O)NC21 (centres undefined)
[7]
  AC50: 2.23 µM (active)

## COC(=O)c1ccccc1NC(=O)COC(=O)CSCC(=O)N1CCOCC1
[8]
  IC50: > 93.1 µM (not active)

## CC1Cc2ccccc2N1Cc1cc(=O)n2ccsc2n1 (centres undefined)
[5]
  IC50: > 100 µM (active)

## O=c1c2ccccc2nc(-c2ccco2)n1CCCn1ccnc1
[8]
  IC50: > 31 µM (not active)

## O=C(C1Cc2ccccc2CN1S(=O)(=O)c1ccc(F)cc1)N1CCOCC1 (centres undefined)
[7]
  AC50: 23.6 µM (active)

## Cc1ccc(-n2nnc(-c3cccnc3Cl)n2)cc1
Bcl-2-related protein A1 [2]
  IC50: > 100 µM (not active)
[9]
  IC50: > 100 µM (inactive)
[10]
  IC50: 3.18 µM (active)
Bcl-2-related protein A1 [4]
  IC50: > 100 µM (not active)
[11]
  IC50: 4.03 µM (active)
Caspase-3
  IC50: 9.03 µM (active)

## COCCn1nnnc1C(c1cc2cc(OC)c(OC)cc2[nH]c1=O)N1CCN(c2ccc(O)cc2)CC1 (centres undefined)
[5]
  IC50: > 100 µM (active)
[12]
  IC50: > 80 µM (inactive)
Large T antigen
  IC50: 6.67 µM (active)

## CCN1CCN(C2=C(Cl)C(=O)N(c3ccc(Cl)c(Cl)c3)C2=O)CC1
Bcl-2-related protein A1 [2]
  IC50: 1.67 µM (active)
[3]
  IC50: > 100 µM (not active)
Bcl-2-related protein A1 [4]
  IC50: 0.97 µM (active)

## Cc1ccc(NC(=O)c2noc3c2CCC3)cc1C
Caspase-6
  AC50: 5.83 µM (active)

## O=C(NO)c1ccc(C(=O)N(C2CCCCC2)C2CCCCC2)cc1
[13]
  IC50: 34.9 µM (inactive)
[14]
  IC50: 14.6 µM (inactive)
H9c2
  IC50: > 79 µM (inactive)
